Read-outs that look alike come from different tables or passages of the source.
Target: T1, human APJ receptor (Homo sapiens, UniProt P35414)
T1 construct: expressed in transfected cells; host or cells: HEK293
T1 sequence (P35414 1-380): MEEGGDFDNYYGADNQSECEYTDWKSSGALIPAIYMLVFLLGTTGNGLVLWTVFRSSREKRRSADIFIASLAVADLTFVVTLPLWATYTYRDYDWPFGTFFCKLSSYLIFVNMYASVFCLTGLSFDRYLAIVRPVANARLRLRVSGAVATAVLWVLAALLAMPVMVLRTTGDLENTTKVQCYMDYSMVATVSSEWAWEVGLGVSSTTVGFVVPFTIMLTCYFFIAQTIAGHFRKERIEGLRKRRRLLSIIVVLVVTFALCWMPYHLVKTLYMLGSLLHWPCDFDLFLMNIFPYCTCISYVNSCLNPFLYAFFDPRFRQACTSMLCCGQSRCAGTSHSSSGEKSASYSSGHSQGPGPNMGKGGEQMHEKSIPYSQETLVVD
Assay: Intracellular cAMP accumulation assay (APJ hcAMP, HTRF)
Assay type: cell-based
Settings: HEK293 cells stably expressing human APJ receptor, inhibition of forskolin-mediated cAMP production
Outline: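 Inhibition of forskolin (2 μM)-driven cAMP, with […], measured by HTRF after 30 min room-temperature compound exposure of stably transfected HEK293 cells. cAMP read from a standard curve; variable-slope fit gives EC50, and maximal inhibition is normalised to (Pyr1)apelin-13 as 100%.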

[1] = Table 1, read-out: hAPJ cAMP EC50 Potency range
[2] = Table 2, read-out: hAPJ cAMP EC50 Potency range

SMILES | EC50 [1] [nM] | other results
CCCCc1nc(O)c(S(=O)(=O)c2ccc(-c3cccnc3C)cc2)c(O)c1N(CC)c1cccc(C#N)c1 [Example 175, 3-((2-butyl-4,6-dihydroxy-5-((4-(2-methylpyridin-3-yl)phenyl)sulfonyl)pyri-dine-3-yl)(ethyl)amino)benzonitrile] | 0.01 to 10 | 
CCCCc1nc(O)c(S(=O)(=O)c2ccc(-c3ccccc3C(=O)NC)cc2)c(O)c1N(C)c1ccccc1F [Example 176, 4′-((6-butyl-5-((2-fluorophenyl)(methyl)a-mino)-2,4-dihydroxypyridin-3-yl)sulfonyl)-N-methyl-[1,1′-biphenyl]-2-carboxamide] | 0.01 to 10 | 
CCCCc1nc(O)c(S(=O)(=O)c2ccc(-c3ccc(F)nc3C)cc2)c(O)c1N1CCCCc2ccccc21 [Example 177, 6-butyl-3-((4-(6-fluoro-2-methylpyridin-3-yl)phenyl)sulfonyl)-5-(2,3,4,5-tetrahydro-1H-benzo[b]azepin-1-yl)pyridine-2,4-diol] | 10 to 100 | 
CCCCc1nc(O)c(S(=O)(=O)c2ccc(-c3ccc(F)nc3C)cc2)c(O)c1N(CC)c1cccc(C#N)c1 [Example 178, 3-((2-butyl-5-((4-(6-fluoro-2-methylpyridin-3-yl)phenyl)sulfonyl)-4,6-dihydroxypyridin-3-yl)(ethyl)amino)benzonitrile] | 0.01 to 10 | 
CCCCc1nc(O)c(S(=O)(=O)c2ccc(-c3ccccc3C(=O)N(C)C)cc2)c(O)c1N1CCCCc2ccccc21 [Example 179, 4′-((6-butyl-2,4-dihydroxy-5-(2,3,4,5-tetrahydro-1H-benzo[b]azepin-1-yl)pyridin-3-yl)sulfonyl)-N,N-dimethyl-[1,1′-biphenyl]-2-carboxamide] | 10 to 100 | 
CCCCc1nc(O)c(S(=O)(=O)c2ccc(-c3ccnc(F)c3C)cc2)c(O)c1N1CCCCc2ccccc21 [Example 180, 6-butyl-3-((4-(2-fluoro-3-methylpyridin-4-yl)phenyl)sulfonyl)-5-(2,3,4,5-tetrahydro-1H-benzo[b]azepin-1-yl)pyridine-2,4-diol] | 0.01 to 10 | 
CCCCc1nc(O)c(S(=O)(=O)c2ccc(-c3ccccc3C(N)=O)cc2)c(O)c1N(CC)c1cccc(C#N)c1 [Example 181, 4′-((6-butyl-5-((3-cyanophenyl)(ethyl)a-mino)-2,4-dihdyroxypyridin-3-yl)sulfonyl)-[1,1′-biphenyl]-2-carboxamide] | 0.01 to 10 | 
CCCCc1nc(O)c(S(=O)(=O)c2ccc(-c3ccccc3C(=O)NC)cc2)c(O)c1N(CC)c1cc(C)cc(C)c1 [Example 182, 4′-((6-butyl-5-((3,5-dimethyphenyl)(ethyl)a-mino)-2,4-dihydroxypyridin-3-yl)sulfonyl)-N-methyl-[1,1′-biphenyl]-2-carboxamide] | 0.01 to 10 | 
CCCCc1nc(O)c(S(=O)(=O)c2ccc(-c3cccnc3C)cc2)c(O)c1N(CC)c1cc(C)cc(C)c1 [Example 183, 6-butyl-5-((3,5-di-methylphenyl)(ethyl)a-mino)-3-((4-(2-methylpyridin-3-yl)phenyl)sulfonyl)pyri-dine-2,4-diol] | 10 to 100 | 
CCCCc1nc(O)c(S(=O)(=O)c2ccc(-c3ccccc3C(=O)NC)cc2)c(O)c1N1CCCCc2ccccc21 [Example 184, 4′-((6-butyl-2,4-dihydroxy-5-(2,3,4,5-tetrahydro-1H-benzo[b]azepin-1-yl)pyridin-3-yl)sulfonyl)-N-methyl-[1,1′-biphenyl]-2-carboxamide] | 10 to 100 | 
CCCCc1nc(O)c(S(=O)(=O)c2ccc(-c3ccccc3C(=O)NC)cc2)c(O)c1N(CC)c1cccc(C#N)c1 [Example 185, 4′-((6-butyl-5-((3-cyanophenyl)(ethyl)a-mino)-2,4-dihydroxypyridin-3-yl)sulfonyl)-N-methyl-[1,1′-biphenyl]-2-carboxamide] | 0.01 to 10 | 
CCCCc1nc(O)c(S(=O)(=O)c2ccc(-c3ccccc3C(=O)N(C)C)cc2)c(O)c1N(CC)c1cccc(C#N)c1 [Example 186, 4′-((6-butyl-5-((3-cyanophenyl)(ethyl)a-mino)-2,4-dihydroxypyridin-3-yl)sulfonyl)-N,N-dimethyl-[1,1′-biphenyl]-2-carboxamide] | 0.01 to 10 | 
CCN(c1ccccc1)c1c(-c2cnc(C)s2)nc(O)c(S(=O)(=O)c2ccc(-c3ccncc3C)cc2)c1O [Example 187, 5-(ethyl(phenyl)amino)-3-((4-(3-methylpyridin-4-yl)phenyl)sulfonyl)-6-(2-methylthiazol-5-yl)pyridine-2,4-diol] | 0.01 to 10 | 
CCN(c1ccccc1)c1c(-c2cnc(C)s2)nc(O)c(S(=O)(=O)c2ccc(-c3cccc(C(=O)NC)c3)cc2)c1O [Example 188, 4′-((5-(ethyl(phenyl)amino)-2,4-dihydroxy-6-(2-methylthiazol-5-yl)pyridin-3-yl)suflonyl)-N-methyl-[1,1′-biphenyl]-3-carboxamide] | 0.01 to 10 | 
CCN(c1ccccc1)c1c(-c2cnc(C)s2)nc(O)c(S(=O)(=O)c2ccc(-c3ccccc3C(=O)NC3CC3)cc2)c1O [Example 189, N-cyclopropyl-4′-((5-(ethyl(phenyl)amino)-2,4-dihydroxy-6-(2-methylthiazol-5-yl)pyridin-3-yl)sulfonyl)-[1,1′-biphenyl]-2-carboxamide] | 0.01 to 10 | 
CCN(c1ccccc1)c1c(-c2cnc(C)s2)nc(O)c(S(=O)(=O)c2ccc(-c3ccc(F)nc3C)cc2)c1O [Example 190, 5-(ethyl(phenyl)amino)-3-((4-(6-fluoro-2-methylpyridin-3-yl)phenyl)sulfonyl)-6-(2-methylthiazol-5-yl)pyridine-2,4-diol] | 0.01 to 10 | 
CCN(c1ccccc1)c1c(-c2cnc(C)s2)nc(O)c(S(=O)(=O)c2ccc(-c3ccnc(F)c3C)cc2)c1O [Example 191, 5-(ethyl(phenyl)amino)-3-((4-(2-fluoro-3-methylpyridin-4-yl)phenyl)sulfonyl)-6-(2-methylthiazol-5-yl)pyridine-2,4-diol] | 0.01 to 10 | 
CCN(c1ccccc1)c1c(-c2cnc(C)s2)nc(O)c(S(=O)(=O)c2ccc(-c3ccccc3C(=O)NC)cc2)c1O [Example 192, 4′-((5-(ethyl(phenyl)amino)-2,4-dihydroxy-6-(2-methylthiazol-5-yl)pyridin-3-yl)suflonyl)-N-methyl-[1,1′-biphenyl]-2-carboxamide] | 0.01 to 10 | 
CCCCc1nc(O)c(S(=O)(=O)c2ccc(-c3ccnc(F)c3C)cc2)c(O)c1N(C)c1ccccc1C [Example 193, 6-butyl-3-((4-(2-fluoro-3-methypyridin-4-yl)phenyl)sulfonyl)-5-(methyl(o-tolyl)amino)pyridine-2,4-diol] | 0.01 to 10 | 
CCCCc1nc(O)c(S(=O)(=O)c2ccc(-c3cccnc3C)cc2)c(O)c1N(C)c1ccccc1C [Example 194, 6-butyl-5-(methyl(o-tolyl)amino)-3-((4-(2-methylpyridin-3-yl)phenyl)sulfonyl)pyri-dine-2,4-diol] | 10 to 100 | 
CCCCc1nc(O)c(S(=O)(=O)c2ccc(-c3ccccc3C(N)=O)cc2)c(O)c1N(C)c1ccccc1C [Example 195, 4′-((6-butyl-2,4-dihydroxy-5-(methyl(o-tolyl)amino)pyridin-3-yl)sulfonyl)-[1,1′-biphenyl]-2-carboxamide] | 0.01 to 10 | 
CCCCc1nc(O)c(S(=O)(=O)c2ccc(-c3ccccc3C(=O)N(C)C)cc2)c(O)c1N(C)c1ccccc1C [Example 196, 4′-((6-butyl-2,4-dihydroxy-5-(methyl(o-tolyl)amino)pyridin-3-yl)sulfonyl)-N,N-dimethyl-[1,1′-biphenyl]-2-carboxamide] | 0.01 to 10 | 
CCN(c1ccccc1)c1c(-c2ccn(C)n2)nc(O)c(C(=O)N2CCC(c3ncc(F)cc3F)C2)c1O (stereo not drawn) [Example 197, (3-(3,5-difluoropyridin-2-yl)pyrrolidin-1-yl)(5-(ethyl(phenyl)amino)-2,4-dihydroxy-6-(1-methyl-1H-pyrazol-3-yl)pyridin-3-yl)methanone] |  | EC50 (hAPJ cAMP EC50 Potency range, Table 2): 0.01 to 10 nM
CCCCc1nc(O)c(S(=O)(=O)c2ccc(-c3ccc(F)nc3C)cc2)c(O)c1N(C)c1ccccc1C [Example 198, 6-butyl-3-((4-(6-fluoro-2-methylpyridin-3-yl)phenyl)sulfonyl)-5-(methyl(o-tolyl)amino)pyridine-2,4-diol] | 10 to 100 | 
CCN(c1ccccc1)c1c(-c2ccn(C)n2)nc(O)c(C(=O)N2CCC(c3ccc(Cl)cn3)C2)c1O (stereo not drawn) [Example 200, (3-(5-chloropyridin-2-yl)pyrrolidin-1-yl)(5-(ethyl(phenyl)amino)-2,4-dihydroxy-6-(1-methyl-1H-pyrazol-3-yl)pyridin-3-yl)methanone] |  | EC50 [2]: 0.01 to 10 nM
CCN(c1ccccc1)c1c(-c2ccn(C)n2)nc(O)c(C(=O)N2CCC(c3ccc(F)cc3F)C2)c1O (stereo not drawn) [Example 201, (3-(2,4-difluorophenyl)pyrrolidin-1-yl)(5-(ethyl(phenyl)amino)-2,4-dihydroxy-6-(1-methyl-1H-pyrazol-3-yl)pyridin-3-yl)methanone] |  | EC50 [2]: 0.01 to 10 nM
CCN(c1ccccc1)c1c(-c2ccn(C)n2)nc(O)c(C(=O)N2CCC(c3ccccc3F)C2)c1O (stereo not drawn) [Example 202, (5-(ethyl(phenyl)amino)-2,4-dihydroxy-6-(1-methyl-1H-pyrazol-3-yl)pyridin-3-yl)(3-(2-fluorophenyl)pyrrolidin-1-yl)methanone] |  | EC50 [2]: 0.01 to 10 nM
